Like-named read-outs stand apart in the source and are kept apart here.
Assays:
[1] = tested on: A. thaliana (Col-0) plant; assay type: in vivo, Arabidopsis thaliana; details: for Decrease in primary root length: vs PNS
Description: The effect treating a plant with a composition comprising a synthetic amphiphile on root morphology or other physical characteristics or attributes can be quantitated. For example, a change in primary root length can be determined by measuring the difference, if any, in primary root length of a plant treated with the composition compared to the average of a control sample of plants of the same type grown under identical conditions in the absence of the composition. A change in lateral root density can be determined by comparing the lateral root density of a plant treated with the composition to the average lateral root density of a sample grown under identical conditions in the absence of the composition. Lateral root density can be determined by dividing the number of lateral roots by the length of the primary root. In certain embodiments for any quantitated characteristic or attribute, the average value of the control is the average of a statistically significant population of control plants. For example, in certain illustrative embodiments disclosed herein, three trials of about 20 plants each were used to determine the average of the control.
Illustrative of certain embodiments, approximately 60 plants were grown on PNS media (no additives) and root lengths and the number of lateral roots were recorded for each. The data points were averaged to obtain the following baseline values: primary root length=40.4±3.8 mm and number of lateral roots=6.1±0.8, respectively. The lateral root density was obtained by dividing the number of lateral roots by the length (in mm) of the primary root. The control value was (6.1/[…]=) 0.15.
Test compounds were added to the growth medium as 0.2% by volume DMSO. […]
To make 500 mL PN media, 485 mL doubly distilled (“dd”) H2O was first added to an autoclave beaker. The following salts and nutrients were added to a beaker and mixed well: 5 mL of 250 mM of KPO4 (pH 5.5), 2.5 mL of 1M KNO3, 1 mL of 1M MgSO4, 1 mL of 1M Ca(NO3)2, 0.5 mL of Ferric EDTA (1000× or 49 mM) and 0.5 mL of Micronutrients (1000×). In a 1 L autoclaved bottle, 0.6% (3 g) of bacteriological agar was added, followed by 500 mL solution prepared above. The media was autoclaved using the Liquid-30 program.
PNS plates were used for plating sterile Arabidopsis thaliana (Columbia-0) seeds. A sterile stock of PNS agar was maintained. Sterile sucrose was added to PN media to make PNS media. To make PNS media containing 0.5% sucrose, 5 mL of 50% sucrose (sterile filtered) was added to 500 mL of PN agar and mixed well.
The stored PNS media was liquefied using a water bath and allowed to cool to 55° C. The type of plates, compounds, and concentrations to be used were confirmed while the media cooled. The plates were labeled on the cover and the bottom with all the relevant information. 50 mL sterile centrifuge tubes were used to measure 29,940 μL (29.94 mL) PNS media. A fresh sterile 50 mL tube was used for each plate. The desired amount and concentration of compound was added to the PNS media, mixed by inverting the tube and poured in the plate. Total volume of media and compound in each plate was kept constant at 30 mL. A maximum of 60 μL (0.2% by volume) compound was added per plate. For example: 60 μL of 25 mM compound was added to 29.94 mL PNS media to get final concentration of 50 μM compound in PNS media. Plates were incubated at room temperature for 2 hours before plating seeds on them.
Hands and bench area were washed thoroughly before beginning. Sterilizing solution was prepared in a sterile 15 mL centrifuge tube, by mixing 5 mL of 30% bleach and 5 μL of 10% Triton X-100. A. thaliana Col-0 seeds were added to sterile 1.5 mL micro-centrifuge tube. 500 μL of sterilizing solution (30% bleach+0.01% Triton X-100) was added to the seeds, vortexed for 3 seconds and incubated at room temperature for 8 minutes. After 8 minutes, bleach was removed and 1 mL autoclaved MilliQ water was added. […]

[2] = study of hydraphiles having various chain lengths; cited from earlier work
[3] = Table 2, 20 μM in PNS, no unit in table (method: millimeters)
[4] = Table 2, 50 μM in PNS, no unit in table (method: millimeters)

## c1ccc(CN2CCOCCOCCN(CCCCCCCCN3CCOCCOCCN(CCCCCCCCN4CCOCCOCCN(Cc5ccccc5)CCOCCOCC4)CCOCCOCC3)CCOCCOCC2)cc1 [C8 hydraphile (1)]
[1]; hydraphile 20 μM in PNS media
  Primary root length: 34 ± 7 mm
[1]; hydraphile 20 μM in PNS media, listed as C8 benzyl hydraphile (compound 1)
  Primary root length: 34±7 mm
[1]; hydraphile 20 μM
  Decrease in primary root length: 9%
[1]; hydraphile 20 μM, lateral roots divided by primary root length
  Lateral root density: 0.15±0.01
[1]; hydraphile 50 μM in PNS media
  Primary root length: 31 ± 6 mm
[1]; hydraphile 50 μM in PNS media, listed as C8 benzyl hydraphile (compound 1)
  Primary root length: 31±6 mm
[1]; hydraphile 50 μM
  Decrease in primary root length: 19%
[1]; hydraphile 50 μM, lateral roots divided by primary root length
  Lateral root density: 0.18±0.03
[2]
  Sodium cation conduction: did not conduct sodium cation efficiently

## CCCCCCCCCCCCN1CCOCCOCCN(CCCCCCCCCCCC)CCOCCOCC1 [C12 lariat ether]
[1]; Table 2, 20 μM
  Lateral root density: 0.17
  Number lateral roots: 6
  Percent decrease 1° root: 1.3%
[1]; [3]
  Primary root length: 40.1 mm
[1]; Table 2, 50 μM
  Lateral root density: 0.15
  Number lateral roots: 4.9
  Percent decrease 1° root: 11.5%
[1]; [4]
  Primary root length: 35.9 mm

## CCCCCCCCCCN1CCOCCOCCN(CCCCCCCCCC)CCOCCOCC1 [C10 lariat ether, N,N′-Didecyl-4,13-diaza-18-crown-6]
[1]; 0 μM to 50 μM, FIG. 7
  Lateral root density with increasing concentration: Linear increase in lateral root density
[1]; Table 2, 20 μM
  Lateral root density: 1.14
  Number lateral roots: 4
  Percent decrease 1° root: 91.4%
[1]; [3]
  Primary root length: 3.5 mm
[1]; Table 2, 50 μM
  Lateral root density: 1.75
  Number lateral roots: 3.5
  Percent decrease 1° root: 95.1%
[1]; [4]
  Primary root length: 2 mm
[1]; lariat ether 20 μM
  Change in root morphology: significant change in root morphology
